From US10155769B2, “Fused azaheterocyclic compounds and their use as AMPA receptor modulators” (Janssen Pharmaceutica NV, priority 2016, dated 2018)

Molecular target: GluA1o-γ8 (Homo sapiens (Human), UniProt P42261+Q8WXS5)
Assay: Calcium flux assay (FLIPR), inhibition of TARP γ8 dependent AMPA receptor activity
Type: cell-based
Conditions: HEK293 cells stably expressing GRIA1o-CACNG8 fusion construct; calcium flux following 15 μM glutamate; negative log of IC50 in molar
Text: This assay was used to test compounds for their ability to inhibit TARP γ8 dependent AMPA receptor activity. The AMPA receptor is a non-selective cation channel activated by glutamate. Ionotropic glutamate receptors normally desensitize too rapidly to allow detectable calcium influx in a FLIPR assay (Strange et al. (2006). “Functional characterisation of homomeric ionotropic glutamate receptors GluR1-GluR6 in a fluorescence-based high throughput screening assay.” Comb Chem High Throughput Screen 9(2): 147-158). But, this desensitization is incomplete, and a substantial steady-state current remains in the sustained presence of glutamate (Cho et al. (2007). “Two families of TARP isoforms that have distinct effects on the kinetic properties of AMPA receptors and synaptic currents.” Neuron 55(6): 890-904).
An in vitro assay was used to determine the potency of test compounds as inhibitors of the glutamate response of the channel formed by GluA1o-γ8. To ensure a 1:1 stoichiometry of GluA1o and γ8 subunits in the expressed channel, a fusion of the cDNAs for GRIA1o and CACNG8 was used. Following Shi et al (2009) “The stoichiometry of AMPA receptors and TARPs varies by neuronal cell type.” Neuron 62(5): 633-640), the C-terminus of the cDNA for GRIA1o was fused to the N-terminus of the cDNA for γ8. The linker sequence was QQQQQQQQQQEFAT. Channels expressed with this construct appear to have similar properties to channels formed by co-expression of GRIA1o with an excess of CACNG8 (Shi et al. 2009). A clonal cell line in HEK293 cells stably expressing this construct, with a geneticin selection marker, was generated for use in this assay.
Cell expressing the GRIA1o-CACNG8 fusion construct were grown in a monolayer in 96- or 384-well microtiter plates. They were washed with assay buffer (135 mM NaCl, 4 mM KCl, 3 mM CaCl2, 1 mM MgCl2, 5 mM glucose, 10 mM HEPES, pH 7.4, 300 mOs) using a Biotek EL405 plate washer. The cells were then loaded with a calcium-sensitive dye (Calcium-5 or Calcium-6, Molecular Devices) and the test compounds at a range of concentrations. Calcium flux following the addition of 15 μM glutamate was monitored using a Molecular Devices FLIPR Tetra.
The fluorescence in each well was normalized to the fluorescence of negative and positive control wells. The negative control wells had no added compounds, and the positive control wells had been incubated with 10 μM CP465022 (a non-subtype-selective AMPA receptor antagonist) (Lazzaro et al. (2002). “Functional characterization of CP-465,022, a selective, noncompetitive AMPA receptor antagonist.” Neuropharmacology 42(2): 143-153). The responses to glutamate as functions of the test compound concentrations were fitted to a four-parameter logistic function. The fitted parameter corresponding to the midpoint was taken to be the potency of inhibition of the compound. The data in Table 4 below illustrates the observed potency for the compounds described herein. pIC50 refers to the negative log of the IC50 in molar.

Chain of GluA1o-γ8 (P42261 other isoform, or with tags, fused parts or gaps): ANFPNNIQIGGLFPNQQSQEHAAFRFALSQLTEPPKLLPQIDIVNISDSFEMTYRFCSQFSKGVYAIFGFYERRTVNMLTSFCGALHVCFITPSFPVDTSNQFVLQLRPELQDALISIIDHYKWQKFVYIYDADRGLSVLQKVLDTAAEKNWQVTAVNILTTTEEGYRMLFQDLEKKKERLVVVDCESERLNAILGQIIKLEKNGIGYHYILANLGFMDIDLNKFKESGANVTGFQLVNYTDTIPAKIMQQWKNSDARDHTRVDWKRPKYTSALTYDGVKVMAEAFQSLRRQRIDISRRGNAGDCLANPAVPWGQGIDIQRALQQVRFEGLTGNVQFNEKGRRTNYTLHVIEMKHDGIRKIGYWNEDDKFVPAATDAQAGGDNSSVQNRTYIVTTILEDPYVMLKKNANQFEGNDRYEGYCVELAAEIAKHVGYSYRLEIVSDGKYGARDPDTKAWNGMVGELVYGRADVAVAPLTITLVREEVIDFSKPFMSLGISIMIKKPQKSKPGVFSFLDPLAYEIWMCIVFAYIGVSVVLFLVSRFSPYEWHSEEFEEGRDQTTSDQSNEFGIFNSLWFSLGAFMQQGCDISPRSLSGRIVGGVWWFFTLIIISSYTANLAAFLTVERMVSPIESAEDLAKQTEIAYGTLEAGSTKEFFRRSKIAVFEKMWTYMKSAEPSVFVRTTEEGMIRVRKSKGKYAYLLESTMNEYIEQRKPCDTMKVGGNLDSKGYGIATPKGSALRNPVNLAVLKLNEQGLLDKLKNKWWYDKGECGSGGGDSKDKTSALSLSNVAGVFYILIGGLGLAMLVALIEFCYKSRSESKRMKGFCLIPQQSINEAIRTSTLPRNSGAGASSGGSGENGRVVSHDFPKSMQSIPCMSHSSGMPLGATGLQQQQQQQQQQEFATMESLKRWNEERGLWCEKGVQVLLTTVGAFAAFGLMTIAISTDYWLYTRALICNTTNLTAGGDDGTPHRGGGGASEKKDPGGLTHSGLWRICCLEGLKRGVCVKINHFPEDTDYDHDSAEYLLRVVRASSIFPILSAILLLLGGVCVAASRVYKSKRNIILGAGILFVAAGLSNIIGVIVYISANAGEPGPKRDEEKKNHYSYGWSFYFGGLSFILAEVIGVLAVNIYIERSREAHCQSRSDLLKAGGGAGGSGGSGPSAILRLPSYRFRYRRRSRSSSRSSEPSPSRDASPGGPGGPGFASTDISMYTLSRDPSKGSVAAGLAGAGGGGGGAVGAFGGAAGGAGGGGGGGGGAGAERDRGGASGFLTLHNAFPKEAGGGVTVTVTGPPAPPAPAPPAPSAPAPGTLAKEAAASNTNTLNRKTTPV

Compound | pIC50 | IC50
FC(F)c1nc2c(-c3cc(Cl)c4[nH]ncc4c3)c(C(F)(F)F)ccn2n1 [Example 1, 8-(7-Chloro-1H-indazol-5-yl)-2-(difluoromethyl)-7-(trifluoromethyl)-[1,2,4]triazolo[1,5-a]pyridine] | 9.5 | –
Cc1cc(-c2c(Cl)ccn3nc(C(F)(F)F)nc23)cc2cn[nH]c12 [Example 2, 7-Chloro-8-(7-methyl-1H-indazol-5-yl)-2-(trifluoromethyl)-[1,2,4]triazolo[1,5-a]pyridine] | 8.5 | –
O=c1[nH]c2ccc(-c3c(C(F)(F)F)ccn4nc(C(F)(F)F)nc34)cc2s1 [Example 3, 6-(2,7-Bis(trifluoromethyl)-[1,2,4]triazolo[1,5-a]pyridin-8-yl)benzo[d]thiazol-2(3H)-one] | 8.1 | –
Cc1cc(-c2c(-c3ccc(F)cc3)ccn3nc(C4CCC4)nc23)cc2cn[nH]c12 [Example 4, 2-Cyclobutyl-7-(4-fluorophenyl)-8-(7-methyl-1H-indazol-5-yl)-[1,2,4]triazolo[1,5-a]pyridine] | 10.6 | –
O=c1[nH]c2ccc(-c3c(-c4ccc(F)cc4)ccn4nc(C(F)(F)F)nc34)cc2s1 [Example 5, 6-(7-(4-Fluorophenyl)-2-(trifluoromethyl)-[1,2,4]triazolo[1,5-a]pyridin-8-yl)benzo[d]thiazol-2(3H)-one] | 9.6 | –
Cc1cc(-c2c(C3CCCC3)ccn3nc(C(F)(F)F)nc23)cc2cn[nH]c12 [Example 6, 7-Cyclopentyl-8-(7-methyl-1H-indazol-5-yl)-2-(trifluoromethyl)-[1,2,4]triazolo[1,5-a]pyridine] | 10.1 | –
Cc1cc(-c2c(N3CCC3)ccn3nc(C(F)(F)F)nc23)cc2cn[nH]c12 [Example 7, 7-(Azetidin-1-yl)-8-(7-methyl-1H-indazol-5-yl)-2-(trifluoromethyl)-[1,2,4]triazolo[1,5-a]pyridine] | 9.5 | –
Cc1cc(-c2c(N3CC(F)C3)ccn3nc(C(F)(F)F)nc23)cc2cn[nH]c12 [Example 8, 7-(3-Fluoroazetidin-1-yl)-8-(7-methyl-1H-indazol-5-yl)-2-(trifluoromethyl)-[1,2,4]triazolo[1,5-a]pyridine] | 8.6 | –
Cc1cc(-c2c(-c3ccc(F)cc3)ccn3nc(C4CCCC4)nc23)cc2cn[nH]c12 [Example 9, 2-Cyclopentyl-7-(4-fluorophenyl)-8-(7-methyl-1H-indazol-5-yl)-[1,2,4]triazolo[1,5-a]pyridine] | 10.8 | –
Cc1cc(-c2c(C#N)ccn3nc(C(F)(F)F)nc23)cc2cn[nH]c12 [Example 10, 8-(7-Methyl-1H-indazol-5-yl)-2-(trifluoromethyl)-[1,2,4]triazolo[1,5-a]pyridine-7-carbonitrile] | 7.7 | –
Cc1cc(-c2c(C)ccn3cc(C(F)(F)F)nc23)cc2c1NC(=O)C2 [Example 11, 7-Methyl-5-[7-methyl-2-(trifluoromethyl)imidazo[1,2-a]pyridin-8-yl]indolin-2-one] | – | 1 nM
Fc1ccc(-c2ccn3cc(C(F)(F)F)nc3c2-c2ccc3[nH]ncc3c2)cc1 [Example 12, 5-(7-(4-Fluorophenyl)-2-(trifluoromethyl)imidazo[1,2-a]pyridin-8-yl)-1H-indazole] | – | 3.16 nM
FC(F)(F)c1cn2cnc(C(F)(F)F)c(-c3cc(Cl)c4[nH]ncc4c3)c2n1 [Example 13, 8-(7-Chloro-1H-indazol-5-yl)-2,7-bis(trifluoromethyl)imidazo[1,2-c]pyrimidine] | – | 0.316 nM

Next, values leading:

pIC50 | IC50 | Compound
– | 0.398 nM | FC(F)c1cn2cnc(C(F)(F)F)c(-c3cc(Cl)c4[nH]ncc4c3)c2n1 [Example 14, 8-(7-Chloro-1H-indazol-5-yl)-2-(difluoromethyl)-7-(trifluoromethyl)imidazo[1,2-c]pyrimidine]
– | 2 nM | Cc1cc(-c2c(C(F)(F)F)ncn3cc(C(F)F)nc23)cc2cn[nH]c12 [Example 15, 2-(Difluoromethyl)-8-(7-methyl-1H-indazol-5-yl)-7-(trifluoromethyl)imidazo[1,2-c]pyrimidine]
9.0 | – | Cc1cc(-c2c(C(F)(F)F)ccn3nc(C(F)F)nc23)cc2cn[nH]c12 [Example 16, 8-(7-Methyl-1H-indazol-5-yl)-2-(difluoromethyl)-7-(trifluoromethyl)-[1,2,4]triazolo[1,5-a]pyridine]
8.9 | – | O=C1Cc2cc(-c3c(C(F)(F)F)ccn4nc(C(F)F)nc34)cc(Cl)c2N1 [Example 17, 7-Chloro-5-(2-(difluoromethyl)-7-(trifluoromethyl)-[1,2,4]triazolo[1,5-a]pyridin-8-yl)indolin-2-one]
8.6 | – | Cc1cc(-c2c(C(F)(F)F)ccn3nc(C(F)F)nc23)cc2c1NC(=O)C2 [Example 18, 7-Methyl-5-(2-(difluoromethyl)-7-(trifluoromethyl)-[1,2,4]triazolo[1,5-a]pyridin-8-yl)indolin-2-one]
9.6 | – | FC(F)(F)c1nc2c(-c3cc(Cl)c4[nH]ncc4c3)c(C(F)(F)F)ccn2n1 [Example 19, 8-(7-Chloro-1H-indazol-5-yl)-2,7-bis(trifluoromethyl)-[1,2,4]triazolo[1,5-a]pyridine]
9.3 | – | Cc1cc(-c2c(C(F)(F)F)ccn3nc(C(F)(F)F)nc23)cc2cn[nH]c12 [Example 20, 8-(7-Methyl-1H-indazol-5-yl)-2,7-bis(trifluoromethyl)-[1,2,4]triazolo[1,5-a]pyridine]
9.5 | – | O=C1Cc2cc(-c3c(C(F)(F)F)ccn4nc(C(F)(F)F)nc34)cc(Cl)c2N1 [Example 21, 5-(2,7-Bis(trifluoromethyl)-[1,2,4]triazolo[1,5-a]pyridin-8-yl)-7-chloroindolin-2-one]
9.1 | – | Cc1cc(-c2c(C(F)(F)F)ccn3nc(C(F)(F)F)nc23)cc2c1NC(=O)C2 [Example 22, 5-(2,7-Bis(trifluoromethyl)-[1,2,4]triazolo[1,5-a]pyridin-8-yl)-7-methylindolin-2-one]
9.4 | – | FC(F)c1ccn2nc(C(F)(F)F)nc2c1-c1cc(Cl)c2[nH]ncc2c1 [Example 23, 8-(7-Chloro-1H-indazol-5-yl)-7-(difluoromethyl)-2-(trifluoromethyl)-[1,2,4]triazolo[1,5-a]pyridine]
9.2 | – | Cc1cc(-c2c(C(F)F)ccn3nc(C(F)(F)F)nc23)cc2cn[nH]c12 [Example 24, 8-(7-Methyl-1H-indazol-5-yl)-7-(difluoromethyl)-2-(trifluoromethyl)-[1,2,4]triazolo[1,5-a]pyridine]
9.2 | – | O=C1Cc2cc(-c3c(C(F)F)ccn4nc(C(F)(F)F)nc34)cc(Cl)c2N1 [Example 25, 7-Chloro-5-(7-(difluoromethyl)-2-(trifluoromethyl)-[1,2,4]triazolo[1,5-a]pyridin-8-yl)indolin-2-one]
9.0 | – | Cc1cc(-c2c(C(F)F)ccn3nc(C(F)(F)F)nc23)cc2c1NC(=O)C2 [Example 26, 7-Methyl-5-(7-(difluoromethyl)-2-(trifluoromethyl)-[1,2,4]triazolo[1,5-a]pyridin-8-yl)indolin-2-one]
8.4 | – | Cc1ccn2nc(C(F)(F)F)nc2c1-c1cc(C)c2[nH]ncc2c1 [Example 27, 7-Methyl-8-(7-methyl-1H-indazol-5-yl)-2-(trifluoromethyl)-[1,2,4]triazolo[1,5-a]pyridine]
9.1 | – | CCc1ccn2nc(C(F)(F)F)nc2c1-c1cc(C)c2[nH]ncc2c1 [Example 28, 7-Ethyl-8-(7-methyl-1H-indazol-5-yl)-2-(trifluoromethyl)-[1,2,4]triazolo[1,5-a]pyridine]
7.6 | – | COc1ccn2nc(C(F)(F)F)nc2c1-c1cc(C)c2[nH]ncc2c1 [Example 29, 7-Methoxy-8-(7-methyl-1H-indazol-5-yl)-2-(trifluoromethyl)-[1,2,4]triazolo[1,5-a]pyridine]
9.8 | – | FC(F)(F)c1ccn2nc(C3CC3)nc2c1-c1cc(Cl)c2[nH]ncc2c1 [Example 30, 8-(7-Chloro-1H-indazol-5-yl)-2-cyclopropyl-7-(trifluoromethyl)-[1,2,4]triazolo[1,5-a]pyridine]
